Row | melting point [°C] | SMILES
1 | 106 | CCOC(=O)c1cc(=O)c2cc(C(=O)OCC)c(C(=O)OCC)nc2o1
2 | 248 to 250 | Cc1ccc(N2CCN(Cc3cnc(N)nc3N)CC2)cc1
3 | 194 to 195 | CCCn1c(=O)c2[nH]c(C(C)(C)C)nc2n(CCNC(C)=O)c1=O
4 | 221 to 223 | O=C1CC(c2ccccc2)C(c2ccccc2)=NN1 (stereo unspecified)
5 | 263 to 265 | Nc1ccc2c(=O)n3c(nc2c1)C(=Cc1ccc(O)c(O)c1)CC3
6 | > 310 | Cc1nccn1-c1nccc2[nH]c(=O)ccc12
7 | 188 to 189 | CC(C)(CO)COc1ccc(NC(=O)c2cc3ccccc3s2)cc1C#N
8 | 197 to 198 | Cc1nc(N2C(=O)N(Cc3ccc(F)cc3)C[C@@H]2C)sc1C(N)=O
9 | 151 to 154 | O=C(COc1cc(N2C(=O)C3=C(CCCC3)C2=O)c(F)cc1Cl)OCc1nc[nH]n1
10 | 108 to 110 | c1ccc(Cc2c[nH]c3ccccc23)cc1
11 | 193 to 194 | CCOC(=O)c1c(Cn2cncn2)nc2sc3c(c2c1-c1ccc(OC)c(OC)c1)CCN(C(=O)c1ccccc1)C3
12 | 145 to 148 | O=C(NCCN1CCOCC1)c1ccc2nonc2c1
13 | 100 | CCCCSc1ccc(/C=C\C(C)=O)cc1[N+](=O)[O-]
14 | 65 to 67 | CCOC(=O)CNC(=O)C1(CC)CCCCCCC1
15 | 247 to 250 | O=c1[nH]c2ccccc2c2c(CO)c(CO)nn12
16 | 75 | CCOC(=O)c1ccc(-c2cccc(-c3ccc4c(c3)C(C)(C)CCC4(C)C)c2OCOC)cc1
17 | 100 to 102 | CC(=O)NCC1(C)OCCc2c1[nH]c1ccccc21 (stereo unspecified)
18 | 155 to 156 | N#CC(C=CC=O)=C(c1ccc(F)cc1)c1ccc(F)cc1
19 | 144 to 146 | O=C1CCC(c2ccccc2)=NN1c1cc(-c2ccnc(Nc3cccc(Cl)c3)n2)ccn1
20 | 206 to 208 | CN1C(=O)Nc2ccc(Cl)cc2C1(C#CC1(C)CC1)C(F)(F)F (stereo unspecified)
21 | 169 to 171 | O=[N+]([O-])c1cccc(-c2nnc(Nc3cccc(SCCCc4ccccc4)c3)s2)c1
22 | 82 to 84 | CCSc1cc(C)nc(SCC)c1NC(=O)CCCCCCCSc1nc2c(C)c(Cl)cc(C(C)C)c2o1
23 | 122 to 124 | CCNc1ccc(S(=O)c2ccccc2)cc1[N+](=O)[O-] (stereo unspecified)
24 | 141 to 143 | Cc1c(CN(CCc2c(I)c3ccccc3n2C)C(=O)C(F)(F)F)ncn1S(=O)(=O)N(C)C

Row | melting point [°C] | SMILES
25 | 67 to 76 | COc1ccc(/C=C/C(=O)N2CCN(C(=O)c3cc(C(F)(F)F)cc(C(F)(F)F)c3)[C@H](Cc3ccc(C)c(C)c3)C2)cc1
26 | 52 to 53 | COC(=O)CCC1CCC(=O)N1 (stereo unspecified)
27 | > 300 | Oc1ccc(O)c2[nH]c(-c3ccc(Cl)cc3)nc12
28 | 183 to 186 | Cc1cc2cc(CN(C)C)cnc2cc1NC(=O)c1ccc(-c2ccc(F)cc2)cc1
29 | 202 to 203 | Cc1ccc(Cl)cc1N1CN(Cc2ccccc2)CN(Cc2ccccc2)C1=S
30 | 124 to 125 | CCCN(Cc1ccc(-c2ccccc2-c2nc(=O)s[nH]2)cc1)c1nc2ccccc2cc1C(=O)OCC
31 | 196 to 198 | COc1ccc([C@@H]2c3ccccc3C[C@@H]3CC(=O)NCCN32)cc1 (racemic)
32 | 157 | COc1ccc(S(=O)(=O)c2ncn(-c3ccccc3)c2-c2ccccc2)cc1
33 | 106 to 109 | CCC(CC)(CC(=O)O)C(=O)O
34 | 235 to 236 | C=CC(O)c1[nH]c(=O)c2c(ccc3nc(Nc4c(Cl)cccc4Cl)n(C)c32)c1C (stereo unspecified)
35 | > 230 | CSc1nn2c(N(C)C)cc(C)nc2c1S(=O)(=O)c1ccc(C)cc1
36 | 134 to 137 | COCCOc1cc2ncnc(NC3=CC(=O)C(Oc4ccccc4C)=CC3=O)c2cc1OC
37 | 131 to 132 | O=C(c1ccc(-n2cncn2)cc1)N1CCC(NCCc2ccc(Cl)cc2)CC1
38 | 133 to 135 | CC(=O)Nc1ccc(CN(C)C)c(O)c1
39 | 168 to 169 | Cc1ccc(S(=O)(=O)n2c(CCCC(=O)O)cc3nc(Cl)ccc32)c(Cl)c1
40 | 81 to 82 | C[C@@H](O)CN1CC(c2cccc(C(F)(F)F)c2)C1
41 | 228 to 230 | Cc1cc(-c2c(-c3ccc(S(C)(=O)=O)cc3)cnn(-c3cccc(Cl)c3)c2=O)ccc1F
42 | 102 | CCCCC(=NNC(=O)OCC)c1ccncc1
43 | 185 to 186 | O=c1oc(-c2ccccc2)cc(O)c1SCc1ccc(OCc2ccccc2)cc1
44 | 115 to 117 | CSCCOC(=O)N(C)c1cnc(-c2cncc(F)c2)s1
45 | 100 to 102 | CC1(C)COc2cc(O)c(C=O)cc21
46 | 127 to 130 | O=C(O)CN1C(=O)[C@@H](N[C@@H](CCc2ccccc2)C(=O)O)COc2ccccc21
47 | 104 to 106 | CC1=C(C2OC(=O)NC2=O)CCCC1 (stereo unspecified)
48 | 223 to 233 | O=C(O)[C@H](Cc1cncn1COCc1ccccc1)NS(=O)(=O)CCc1ccccc1

Row | melting point [°C] | SMILES
49 | 233 | Cc1cccc(-c2nc3ccc(O)cc3n2Cc2ccccc2C(F)(F)F)c1
50 | 122 to 123 | O=C1CC(c2ccccc2)=Nc2ccccc2N1Cc1ccccc1
51 | 104 to 110 | FC(F)(F)c1ccc(Oc2ccc3c(c2)OCC(c2ccccc2)O3)nc1 (stereo unspecified)
52 | 85 to 90 | COc1cc2ncc(OC3CCC(OC)CC3)nc2cc1OC (stereo unspecified)
53 | 124 to 126 | CCCCc1ccc(N2CCN(C(=O)Nc3nc4ccccc4nc3OC)CC2)cc1
54 | 180 to 182 | CCOC(=O)N1CCN(C(=O)c2sc(NC(C)=O)nc2CCc2ccc(NC(=N)N)cc2)CC1
55 | 196 to 200 | C[C@H]1OC(=O)[C@@H](N)[C@@H]1C(=O)O
56 | 156 to 159 | CC(C)Cn1c(C(F)(F)F)nc2ccc(-n3c(=O)cc(C(F)(F)F)n(C)c3=O)cc21
57 | 108 | CN(C)C(=O)Nc1coc2ccccc2c1=S
58 | 134 to 137 | CC(C)c1cccc(C(C)C)c1NC(=O)C(NCc1ccccc1)c1ccccc1 (stereo unspecified)
59 | 65 to 68 | COC(=O)C(C)Oc1cc(C)ccc1C=O (stereo unspecified)
60 | 78 to 80 | COc1ccc(C=CC(C)=O)cc1OC
61 | 46.5 to 48.5 | Cc1ccc(C)c(OCc2ccccc2CCl)c1
62 | 218 to 220 | CC(C)Nc1nc2cc(Cl)c(Cl)cc2[nH]1
63 | 196 to 199 | c1cnc2[nH]cc(CN3CCN(c4ccc5c(c4)OCO5)CC3)c2c1
64 | 183 to 184 | CN(C(=O)CNc1nc(-c2ccccc2)ncc1N)c1ccccc1
65 | 88 to 89 | CC(C)c1cc(CC#N)c(C(C)C)cc1C#N
66 | 117 to 118 | COC(=O)C=Cc1ccc(OCC(C)=O)cc1
67 | 136 to 138 | COC(=O)C(Oc1cc(OCc2ccnnc2)ccc1C#N)c1ccccc1Cl (racemic)
68 | 149 to 150 | CCCCCS(=O)(=O)NC(=O)c1ccc2nc(C)n(Cc3ccc(N(C)C(=O)OCC)cc3Cl)c2n1
69 | > 290 | CN1CCc2c(O)c(F)cc3c(=O)c(C(=O)O)cn1c23
70 | 52 to 55 | CC(CCCO)C1CCC2C3C(OCc4ccccc4)CC4CC(OC5CCCCO5)CCC4(C)C3CCC12C (stereo unspecified)
71 | 181 | CN(CC(=O)O)C(=S)c1cccc2c(Br)cccc12
72 | 159 to 160 | CCCC(=O)c1c(CC)nc2c(-c3ccc(Cl)cc3Cl)nccn12

Row | melting point [°C] | SMILES
73 | 211 to 218 | CCOC(=O)c1cn(NC)c2cc3c(cc2c1=O)OCO3
74 | 112 to 114 | COC(=O)c1cc(Cl)ccc1NS(=O)(=O)c1ccc(C)cc1
75 | 148 to 164 | Oc1ccc(C2CC(c3ccc(O)cc3)C2)cc1 (stereo unspecified)
76 | 97 to 98 | CCOC(=O)c1cc(-c2ccc(OC)cc2)n(-c2ccc(OC)cc2)n1
77 | 193 to 194 | CC(=O)Oc1ccc2nc(S(N)(=O)=O)sc2c1
78 | 188 | O=c1ccc2ccccc2n1O
79 | 138 | CCCc1c(-c2cc(=O)c3c(O)cc(OCC(=O)OCC)cc3o2)ccc(OC)c1O
80 | 95 to 96 | CCCCCCSc1nn2c(=O)cc(Cl)nc2s1
81 | 193 to 194 | O=C(Nc1ccc(Cc2nnn[nH]2)cc1)C(F)(F)C(F)(F)C(F)(F)C(F)(F)C(F)(F)C(F)(F)C(F)(F)F
82 | 160 to 162 | COC(=O)c1sc(C(C)(C)C)cc1NC(=O)Nc1ccc(F)cc1
83 | 153 to 157 | O=C(Nc1ccc(Cl)c(C(F)(F)F)c1)Nc1ccccc1P(=O)(O)O
84 | 191 | CCCC(=O)Nc1n[nH]c2c(F)c(F)ccc12
85 | 146 | C=CC(c1ccccc1)c1cc(C)c2c(c1O)C(=NO)CC2 (stereo unspecified)
86 | 174 to 176 | CNC1CCN(c2ncc3ncnc(Nc4ccc(F)c(Cl)c4)c3n2)CC1
87 | 136 to 139 | CCCCc1oc2ccccc2c1C(=O)Nc1ccc2c(Br)c(OC(Cc3ccccc3)C(=O)OC)ccc2c1 (stereo unspecified)
88 | 150 to 151 | CC(C)(CC(C)(c1ccc(O)cc1)c1ccc(O)cc1)c1ccc(O)cc1
89 | 192 to 193 | Cn1c(=O)c2c(ncn2CCCN2CCC(NC(=O)c3ccc(F)cc3)CC2)n(C)c1=O
90 | 148 | O=C(C=C1OC(=O)c2cccc(Cl)c21)c1ccccc1
91 | 68 to 82 | COC(=O)c1cc(N2CCSCC2)c(C(F)(F)F)cc1[N+](=O)[O-]
92 | 228 to 231 | FC(F)c1nc2ccccc2n1-c1nc(Oc2ccccc2)nc(N2CCOCC2)n1
93 | 120 to 122 | CCCNC(=O)c1cnc2ccccn2c1=O
94 | 167 to 168 | CCOC(=O)C(=NO)c1ccccc1[N+](=O)[O-]
95 | 110 | CN(C(=O)COc1cc(-c2ccccc2)nc2ccccc12)C1CCC1
96 | 149 to 157 | CC(C)N1C(=O)C2Cc3nc[nH]c3CN2C1=O (stereo unspecified)

Row | SMILES | melting point [°C]
97 | COc1cc(C2=C(c3c[nH]c4ccccc34)C(=O)NC2=O)cc(OC)c1OC | 227
98 | C1=C(c2c[nH]c3ccccc23)CCN(CC2COc3ccc4occc4c3O2)C1 (stereo unspecified) | 208 to 209
99 | CCON1CC1C(N)=O (stereo unspecified) | 50 to 54
100 | CNC(=O)N1N=C(c2ccc([N+](=O)[O-])c(C)c2)c2cc3c(cc2C=C1C)OCO3 | 246 to 248
101 | Cc1c(C2CCC(Cc3ccccc3)(N(C)C)CC2)[nH]c2ccc(C(F)(F)F)cc12 (stereo unspecified) | 166 to 174

From a melting point compilation (Tetko et al.; mined from patent text by program, amines drawn as free bases though some values may be those of a salt)
